Patent publication US11773077B2, “Compounds containing carbon-carbon linker as GPR120 agonists” (PIRAMAL ENTERPRISES LIMITED, priority 2015, dated 2023)

Molecular target: T1, GPR120L (Long Isoform) receptor (Homo sapiens, UniProt Q5NUL3)
T1 construct: expressed in transfected cells; similar procedure in HEK 293 cells
T1 sequence (Q5NUL3 1-377 isoform Q5NUL3-1): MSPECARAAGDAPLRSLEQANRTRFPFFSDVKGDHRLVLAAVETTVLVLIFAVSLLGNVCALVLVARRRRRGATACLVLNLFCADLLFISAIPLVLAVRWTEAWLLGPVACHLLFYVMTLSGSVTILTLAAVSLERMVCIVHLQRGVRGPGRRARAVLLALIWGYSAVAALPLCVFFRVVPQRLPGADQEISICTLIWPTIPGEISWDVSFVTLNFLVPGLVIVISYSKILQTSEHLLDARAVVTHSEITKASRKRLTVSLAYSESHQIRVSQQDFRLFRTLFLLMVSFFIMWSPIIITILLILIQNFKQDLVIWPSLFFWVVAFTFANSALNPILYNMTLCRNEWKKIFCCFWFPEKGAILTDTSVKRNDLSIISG
Assay: Beta (β) arrestin 2 Interaction Assay (β-galactosidase enzyme fragment complementation)
Assay type: cell-based
Conditions: β-arrestin recruitment; CHO-K1 cells stably expressing GPR120L, similar procedure for HEK 293 cells; 2 hours incubation
Protocol: Beta (β) arrestin 2 Interaction Assay […] was performed using CHO-K1 cells stably expressing the GPR120L (Long Isoform) receptor using β-galactosidase (Beta gal) enzyme fragment complementation assay. The measurement of GPR120 activation upon agonist activation was directly provided by β-arrestin recruitment. One day before the β-arrestin 2 assay, CHO-K1 cells were seeded and incubated overnight at 37° C. in a 5% CO2 humidified atmosphere. Cells were treated with the test compounds in various concentrations ranging from 30 μM to 1 nM and incubated for 2 hours for GPCR (GPR120) activation. Extent of Arrestin recruitment was measured by adding detection reagents for Beta gal complementation assay, and was further incubated for 1 hour. The chemiluminescent signal was detected on Polar Star (BMG Labtech). The dose-response curve was analyzed using Sigma Plot/Graph Pad. The EC50 (concentration of the test compounds where 50% of compounds' maximal activity is observed) values were calculated from the dose-response curve.

| SMILES | EC50 [µM] |
| --- | --- |
| Cc1ccc(-c2ccc(F)cc2C#Cc2ccc(CCCC(=O)O)nc2)s1 [Compound 3, 4-(5-((5-Fluoro-2-(5-methylthiophen-2-yl)phenyl)ethynyl)pyridin-2-yl)butanoic acid] | 5 to 10 |
| Cc1ccc(-c2ccc(F)cc2CC(F)(F)c2ccc(CCCC(=O)O)cc2)s1 [Compound 5, 4-(4-(1,1-Difluoro-2-(5-fluoro-2-(5-methylthiophen-2-yl)phenyl)ethyl)phenyl)butanoic acid] | 0.05 to 0.5 |
| CC1(c2ccc(-c3ccc(F)cc3CC(F)(F)c3ccc(CCCC(=O)O)cc3)s2)CC1 [Compound 6, 4-(4-(1,1-Difluoro-2-(5-fluoro-2-(5-(1-methylcyclopropyl)thiophen-2-yl)phenyl)ethyl)phenyl)butanoic acid] | 0.5 to 5 |
| N#CC1(c2ccc(-c3ccc(F)cc3C#Cc3ccc(CCCC(=O)O)cc3)s2)CC1 [Compound 11, 4-(4-((2-(5-(1-Cyanocyclopropyl)thiophen-2-yl)-5-fluorophenyl)ethynyl)phenyl)butanoic acid] | 0.5 to 5 |
| O=C(O)CCCc1ccc(CCc2cc(F)ccc2-c2nc3c(s2)CCCC3)cc1 [Compound 12, 4-(4-(5-fluoro-2-(4,5,6,7-tetrahydrobenzo[d]thiazol-2-yl)phenethyl)phenyl)butanoic acid] | 0.05 to 0.5 |
| CC1(c2ccc(-c3ccc(F)cc3C=Cc3ccc(CCCC(=O)O)cc3)s2)CC1 [Compound 14, 4-(4-(5-fluoro-2-(5-(1-methylcyclopropyl)thiophen-2-yl)styryl)phenyl)butanoic acid] | 0.05 to 0.5 |
| O=C(O)CCCc1ccc(C#Cc2cc(F)ccc2-c2ccc(C3CC3)s2)cc1 [Compound 18, 4-(4-((2-(5-cyclopropylthiophen-2-yl)-5-fluorophenyl)ethynyl)phenyl)butanoic acid] | 0.05 to 0.5 |
| COc1ccc(-c2ccc(F)cc2CC(F)(F)c2ccc(CCCC(=O)O)cc2)cn1 [Compound 20, 4-(4-(1,1-difluoro-2-(5-fluoro-2-(6-methoxypyridin-3-yl)phenyl)ethyl)phenyl)butanoic acid] | 0.05 to 0.5 |
